In US20140378541A1, “Synthetic Epigallocatechin Gallate (EGCG) Analogs” (WAYNE STATE UNIVERSITY, priority 2011, published 2014):
Numbering of substitutions follows the chain as printed. Where two headings read alike, the source gives them in different places.

Experiments:
[1] = molecular target: T1, purified rabbit 20S proteasome (Oryctolagus cuniculus, UniProt G1T4Q9); assay: Inhibition of chymotrypsin-like activity of purified 20S proteasome; assay type: biochemical; details: for proteasomal inhibition (in words): purified 20S proteasome, concentration not stated; for inhibition of proteasomal chymotryptic activity (in words): even at a concentration of 50 μM
T1 sequence (G1T4Q9 60-263): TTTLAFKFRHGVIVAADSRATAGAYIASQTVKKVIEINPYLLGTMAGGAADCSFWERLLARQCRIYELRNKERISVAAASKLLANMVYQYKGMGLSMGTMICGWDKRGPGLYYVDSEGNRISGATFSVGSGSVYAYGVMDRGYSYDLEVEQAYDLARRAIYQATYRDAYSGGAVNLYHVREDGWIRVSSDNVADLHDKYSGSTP
Experimental: Purified 20S proteasome was incubated with compound 5, 7, 16, or 21 (A) or MDA-MB-231 cell extract (5.7 μg) was incubated with compound 6, 8, 17, or 22 (B) at indicated concentrations for 2 hours, followed by measuring the proteasomal chymotrypsin-like activity. EGCG was used as a comparative standard.
Purified rabbit 20S proteasome and fluorogenic substrate Suc-LLVY-AMC for the proteasomal chymotrypsin like (CT-like) activity were obtained from Calbiochem Inc. (San Diego, Calif.). Fetal bovine serum (FBS) was from Tissue Culture Biologicals (Tulare, Calif.). Penicillin and streptomycin were purchased from Invitrogen Co. (Carlsbad, Calif.). RPMI 1640 medium was purchased from Invitrogen Co. (Carlsbad, Calif.). MTT (3-4,5-dimethylthiazol-2-yl-2.5-diphenyl-tetrazolium bromide) was purchased from Sigma-Aldrich.
A purified rabbit 20S proteasome (35 ng) was incubated with 20 μM of substrate Suc-LLVY-AMC in 100 μl assay buffer (20 mM Tris-HCl, pH 7.5), in the presence of EGCG or EGCG analogs at different concentrations or the solvent for 2 h at 37° C., followed by measurement of hydrolysis of the fluorogenic substrates using a Wallac Victor3™ multi-label counter with 355-nm excitation and 460-nm emission wavelengths.

[2] = tested on: MDA-MB-231 cells; assay: Mammosphere formation assay; assay type: cell-based; details: Homo sapiens, MDA-MB-231, 168 h, 7 days
Experimental: MDA-MB-231 cells were seeded in low attached 6-well plates (1000 cells/well) and treated with indicated concentrations of 23 and 30 for 7 days, followed by calculating numbers of mammosphere (A) and taking photos of mammosphere morphology (B). Metformin and EGCG were served as control. *, P<0.1; **, P<0.01. Columns, mean of three experiments; bars, SD.
Mammosphere formation assay was performed to assess the capacity of cancer stem cell self-renewal. Single cell suspensions of MDA-MB-231 cells were thoroughly suspended and plated on ultra low adherent wells of 6-well plates (Corning, Lowell, Mass.) at 1000 cells/well in 1.5 ml of sphere formation medium (1:1 DMEM/F12 medium supplemented with 50 units/ml penicillin, […] streptomycin, B-27 and N-2). One milliliter of sphere formation medium was added every 3-4 days. After 7 days of incubation with different concentrations of EGCG analogs 23, 30 or metformin, the formed spheres were collected by centrifugation at 300 g for 5 min and counted with an inverted phase-contrast Zeiss Axiovert 25 microscope.

[3] = tested on: Human breast cancer MDA-MB-231 cells; assay: MTT cell proliferation assay in MDA-MB-231 cells; assay type: cell-based; details: 24 h; for inhibition at 50 µM: Homo sapiens, MDA-MB-231
Experimental: Human breast cancer MDA-MB-231 cells were treated with 25 or 50 μM EGCG analogs for 24 hours, followed by MTT assay. Pro-EGCG was used as a comparison.
Human breast cancer MDA-MB-231 cells with high COMT activity were treated with 50 μM EGCG analogs for 24 hours in the absence or presence of 10 μM DNC, followed by MTT assay. Pro-EGCG was used as a comparison.
(§1) (A) EGCG analogs 23 and 30 inhibited breast cancer cell proliferation. MDA-MB-231 cells were treated with indicated concentrations of 23, 30 or metformin for 24 h, followed by a MTT assay. *, P<0.1; **, P<0.01. Columns, mean of three experiments; bars, SD. (B) EGCG analogs 23 and 30 activated AMPK at a dose-dependent manner, measured by elevated level of phosphor-AMPKα and its downstream proteins of phosphor-Raptor. […] MDA-MB-231 cells were treated with indicated concentrations of 23 or 30 for 3 h, followed by Western blot analysis with the indicated antibodies. The numbers underneath the Western results of p-AMPKα indicated normalized phosphor-AMPKα/β-actin ratios. […]
(§2) Cells were grown in a 96-well plate. Triplicate wells of cells were treated with indicated concentrations of EGCG or EGCG analogs for 24 h. After aspiration of medium, MTT (1 mg/ml) was then added to the cell cultures, followed by incubation for 3 h at 37° C. After cells were crystallized, MTT was removed and DMSO was added to dissolve the metabolized MTT product. The absorbance was then measured on a Wallac Victor3 1420 Multi-label counter at 540 nm.

[4] = tested on: AMPK signaling; assay: AMPK activation, Western blot, MDA-MB-231 cells; assay type: cell-based, human; details: 20 μM, 3 h; metformin 10 mM as comparison
Experimental: In FIG. 9A, human breast cancer MDA-MB-231 cells were treated with 20 μM of EGCG, Pro-EGCG and EGCG analogs (compounds 5, 7, 23, 30 and 31), or 10 mM of metformin for 3 hrs. Cell lysates were analyzed by Western blot using antibodies of anti-AMPK, p-AMPK, PARP, p-EGFR, EGFR or β-actin. In FIG. 9B, human breast cancer MDA-MB-231 cells were treated with 20 μM of EGCG analogs 23 and 30, 10 nM of docetaxel alone, or combined treatment with compounds 23 and 30 plus docetaxel for 24 hrs. Cell lysates were analyzed by Western blot using antibodies of anti-AMPK, p-AMPK, PARP, p-EGFR, EGFR or β-actin. In FIG. 9C, cells were incubated in medium (0.1% BSA without FBS) containing 20 μM of 23, 30, 2.5 μM of Erlotinib (Eb) alone or the combinations as indicated for 24 hrs. Cell lyses were analyzed by Western blot using antibodies of anti-AMPK, p-AMPK, PARP, p-EGFR, EGFR or β-actin.
as §1
A whole cell extract was prepared from the treated cells as described by Landis-Piwowar et al. Cancer Res. (2007) 67, 4303, Chen et al. Cancer Res. (2007) 67, 1636, and Chen et al. Biochem. Pharm. (2005) 69, 1421. Cell extracts (30 μg) were separated by an SDS-PAGE gel and transferred to nitrocellulose membranes. The membrances were blotted by specific antibodies including anti-AMPK, p-AMPK, EGFR, p-EGFR (Cell Signaling Tech., Danvers, Mass.), PARP (Enzo Life Sciences, Plymouth Meeting, Pa.), actin (Santa Cruz Biotechnology, Santa Cruz, Calif.). The membranes were visualized by enhanced chemiluminescence, as described previously by Landis-Piwowar et al. Cancer Res. (2007) 67, 4303, Chen et al. Cancer Res. (2007) 67, 1636, and Chen et al. Biochem. Pharm. (2005) 69, 1421.
The Western blot analysis was performed as follows: A whole cell extract was prepared from the treated cells as described previously (Landis-Piwowar et al., Cancer research, 2007, 67: 4303-4310; Chen et al., Cancer research, 2007, 67: 1636-1644; Chen et al., Biochemical pharmacology, 2005, 69: 1421-1432). The cell extracts (30 μg) were then separated by an SDS-PAGE gel and transferred to nitrocellulose membranes. The membrances were blotted by specific antibodies including anti-AMPK, p-AMPK, EGFR, p-EGFR (Cell Signaling Tech. Danvers, Mass.), PARP (Enzo Life Sciences, Plymouth Meeting, Pa.), actin (Santa Cruz Biotechnology, Santa Cruz, Calif.). The membranes were visualized by enhanced chemiluminescence, as described previously (Landis-Piwowar et al., Cancer research, 2007, 67: 4303-4310; Chen et al., Cancer research, 2007, 67: 1636-1644; Chen et al., Biochemical pharmacology, 2005, 69: 1421-1432).
In FIG. 9A, human breast cancer MDA-MB-231 cells were treated with 20 μM of EGCG, Pro-EGCG and other EGCG analogs (compounds 5, 7, 23, 30 and 31), or 10 mM of metformin for 3 hrs. Cell lysates were analyzed by Western blot using antibodies of anti-AMPK, p-AMPK, PARP, p-EGFR, EGFR or β-actin. In FIG. 9B, human breast cancer MDA-MB-231 cells were treated with 20 μM of EGCG analogs 23 and 30, 10 nM of docetaxel alone, or combined treatment with compounds 23 and 30 plus docetaxel for 24 hrs.

[5] = tested on: human multiple myeloma ARP cells; assay: MTT assay in multiple myeloma ARP cells, alone or with Velcade; assay type: cell-based; details: 48 h; for effect on cell proliferation when combined with Velcade: 20 μM plus varying doses of Velcade
Experimental: The cells were treated with Velcade™ alone or with 20 μM of compounds 5, 7 and 23 or in combination with varying doses of Velcade™ for 48 hrs, followed by a MTT assay.
Human multiple myeloma cells (Arp and Opm1) cells, kindly provided by Dr. Ramesh Batchu (Wayne State University), were grown in RPMI-1640 medium supplemented with 10% FBS, 100 units/ml of penicillin, and 100 μg/ml of streptomycin. Cells were maintained at 37° C. in 5% CO2 (Mujtaba T, et al., Int J Mol Med. (2012) 29(1):102-6).
as §2

[6] = molecular target: T2, proteasomal chymotrypsin-like activity of MDA-MB-231 cell extracts (Homo sapiens, UniProt P28074); assay: Proteasomal chymotrypsin-like activity in MDA-MB-231 cell lysate with high COMT activity; assay type: biochemical; details: concentrations ranging between 1-10 μM, 2 h
T2 construct: endogenous in cells; host or cells: MDA-MB-231 human breast cancer cells (ATCC), cell extract
T2 sequence (P28074 60-263): T1 sequence (G1T4Q9 60-263) with D197E
Experimental: (A) MDA-MB-231 cell extracts (5.7 μg) were incubated with different concentrations of compound 5 or 7 or EGCG for 2 hours, followed by performance of proteasomal chymotrypsin-like activity assay. EGCG was used as a control. (B) MDA-MB-231 cell extracts (5.7 μg) were pre-treated with 10 μM DNC for 20 minutes, followed by co-incubation with compound 5, or 7 or EGCG for 2 h. The proteasomal chymotrypsin-like activity was measured.
Human breast cancer MDA-MB-231 cell lysate that contains high COMT activity were treated with varying concentrations of compound 5 or 7. […] Thus, consistent with previous reports EGCG is also susceptible to methylation by COMT (H., Lu, X. Meng, C. S. Yang, Drug Metabolism and Disposition; 31; 572, 2003).

[7] = tested on: human multiple myeloma OPM1 cells; assay: MTT assay in multiple myeloma OPM1 cells, alone or with Velcade; assay type: cell-based; details: 48 h

With `CC(=O)Oc1cc(OC(C)=O)cc(C(=O)O[C@H]2Cc3ccccc3C[C@H]2OC(C)=O)c1` [Compound 22] as the molecule, how does the “proteasomal inhibition (in words)” value [1] read?
The value was “none”.

What does the source list for `CN(C)C(=N)N=C(N)N` [metformin, reference compound]?
inhibition at 5000 µM ([2]; 5 mM): 41.4%; inhibition at 10000 µM ([2]; 10 mM): 67.6%

With `CC(=O)Oc1cc(OC(C)=O)c2c(c1)O[C@H](c1cc(OC(C)=O)c(OC(C)=O)c(OC(C)=O)c1)[C@H](OC(=O)c1cc(OC(C)=O)c(OC(C)=O)c(OC(C)=O)c1)C2` [Compound 4, (−)-Epigallocatechin gallate octa-acetate] as the molecule, how does the “inhibition in MDA-MB-231 cells growth” value ([3]; 25 to 50 μM, MTT) read?
Its value is 0 to 32%.

What about the inhibition at 50 µM ([3]; absence of DNC, read-out: inhibition of cell proliferation, compound alone) of the same molecule?
The inhibition at 50 µM was 42%.

And the inhibition at 50 µM ([3]; plus 10 μM DNC (COMT inhibitor), read-out: inhibition of cell proliferation in the presence of DNC)?
The inhibition at 50 µM was 89%.

What about the “AMPK activation (p-AMPK)” value [4] of the same molecule?
The value was “can activate AMPK signaling”.

And the “proteasomal inhibition (in words)” value [1]?
The value was “none”.

For `CC(=O)Oc1cc(C(=O)O[C@H]2Cc3ccccc3C[C@H]2OC(C)=O)cc(OC(C)=O)c1OC(C)=O` [Compound 17], which “proteasomal inhibition (in words)” value [1] is on record?
Its value is “none”.

For `O=C(O[C@H]1Cc2ccccc2C[C@H]1OC(=O)c1ccc(F)c(F)c1)c1ccc(F)c(F)c1` [Compound 33], which melting point is on record?
The melting point was 102 to 104 °C.

For `O=C(O[C@H]1Cc2ccccc2C[C@H]1OC(=O)c1cc(O)c(O)c(O)c1)c1cc(O)c(O)c(O)c1` [Compound 5], which “effect on cell proliferation when combined with Velcade” value [5] is on record?
Its value is “antagonized the inhibitory effect”.

And the “inhibition of proteasomal activity” value [6]?
Its value is 10-16%.

With `O=C(O[C@H]1Cc2ccccc2C[C@H]1OC(=O)c1cc(F)cc(F)c1)c1cc(F)cc(F)c1` [Compound 34] as the molecule, how does the melting point read?
Its melting point is 136 to 138 °C.

For `CC(C)C[C@H](NC(=O)[C@H](Cc1ccccc1)NC(=O)c1cnccn1)B(O)O` [Velcade™, bortezomib, reference compound], which “cell proliferation, Velcade alone” value ([5]; varying doses) is on record?
The value was “reduced cell proliferation in a dose-dependent manner”.

What about the “sensitivity of OPM1 cell line to treatment, versus ARP cells” value [7] of the same molecule?
Its value is “more resistant”.

With `O=C(O[C@H]1Cc2ccccc2C[C@H]1O)c1cc(O)cc(O)c1` [Compound 21] as the molecule, how does the “inhibition of proteasomal chymotryptic activity (in words)” value [1] read?
Its value is “not active”.

For `O=C(O[C@H]1Cc2ccccc2C[C@H]1O)c1cc(O)c(O)c(O)c1` [Compound 16], which “inhibition of proteasomal chymotryptic activity (in words)” value [1] is on record?
Its value is “did not inhibit”.

Which results are given for `O=C(O[C@H]1Cc2ccccc2C[C@H]1OC(=O)c1cc(O)cc(O)c1)c1cc(O)cc(O)c1` [Compound 7]?
effect on cell proliferation when combined with Velcade [5]: synergistic inhibitory effect; inhibition at 20 µM ([5]; Homo sapiens, ARP cells, 20 μM, read-out: inhibition of cell proliferation): ~60%; inhibition of proteasomal activity [6]: 18-51%
